Reference: patent US20090297492A1, “Method for Improving Cognitive Performance” (YAMAHA HATSUDOKI KABUSHIKI KAISHA, priority 2008, published 2009)

Columns and labels:
[1] = system: healthy males aged 50 to 69; experiment: CogHealth cognitive function test (task-switching) with administration of astaxanthin; type: in vivo, human; conditions: for Simple reaction, average reaction time: 10 subjects
Excerpt: CogHealth, mentioned above, is based on task-switching that is used for evaluating higher brain functions (executive functions), such as the suppression of an action or the reorganization of information processing (A. F. Kramer et al., Nature, Vol. 400, pp. 418-419 (1999), N. J. Cepeda et al, Developmental Psychology, Vol. 37, No. 5, pp. 715-730 (2001), and S. Hsieh and L. C. Liu, Brain Res. Cogn. Brain Res., Vol. 22, No. 2, pp. 165-175 (2005)). Furthermore, fMRI analysis of brain proves that frontal lobe activity and task-switching relate to each other, and thus CogHealth is accepted as a frontal lobe function test. […] In CogHealth measurement, analysis is performed by calculating an average RT (reaction time) for each task.
“Simple reaction” refers to a task of pressing a button when a card is flipped from face-down to face-up. “Choice reaction” refers to a task of pressing a button based on the judgment of whether the card flipped from face-down to face-up is red or black. In other words, the simple reaction and the choice reaction are tasks relating to reaction time and suppression time in the function of the human frontal lobe. The simple reaction time is the time taken to perform one reaction to one sensory stimulus, and the choice reaction time is the time necessary to recognize a type of a given stimulus, and to make a reaction depending on the type in a predetermined manner.
“Working memory” refers to a task of pressing a button based on the judgment of whether or not a flipped card is the same as the preceding card. “Delayed recall” refers to a task of pressing a button based on the judgment of whether or not a flipped card is the same as a card that was present in the delayed recall task. “Working memory” and “delayed recall” are tasks for measuring memory, such as immediate memory and episodic memory. Working memory is a concept that includes not only information storage for a short period but also cognitive information processing. Working memory is memory used for a very short period of time in units of seconds, but the delayed recall is memory used for a period of time slightly longer than that of the working memory.
“Divided attention” refers to a task of pressing a button when at least one of five cards moving up and down is brought into contact with an upper or lower set line, and is a task for measuring spatially divided attention ability. In other words, such divided attention is an ability not to concentrate on one point but to allocate attention to the surroundings (spatially divided attention ability or spatially allocated attention ability). The meaning of divided attention is entirely different from attention scattering.
The astaxanthin-containing soft capsules (each capsule contains 3 mg of astaxanthin) were administered to the test subjects by ingestion of two capsules with water twice a day after eating breakfast and supper. The administration period was 12 weeks.
In this example, in order to evaluate cognitive function, measurement using CogHealth (based on task-switching) and P300 (one of the event-related potentials of an electroencephalogram) was performed at 6 weeks and 12 weeks after starting administration.
The average RT (reaction time) was calculated for each of the tasks “simple reaction”, “choice reaction”, “working memory”, “delayed recall”, and “divided attention”. For two memory tasks (“working memory” and “delayed recall”), analysis was performed by also calculating the average AR (correct answer ratio).
For each index, a multiple comparison (Dunnet) was performed to obtain the P value. Regarding the result of P300, a Student's t-test was used additionally as a comparison before and after ingestion.

[2] = system: healthy males aged 50 to 69; experiment: P300 event-related potential of electroencephalogram, auditory oddball paradigm; type: in vivo, human
Excerpt: On the other hand, event-related potential, which is a type of electroencephalogram, is a method for measuring cognitive functions by measuring the activity of the cerebral nerves during cognitive work. In particular, the P300 (P3b) component of event-related potential has been used to estimate the mental work load (A. F. Kramer and T. Weber, Handbook of psychophysiology (2nd Edition), J. T. Cacioppo et al. (Eds.), New York, Cambridge University Press, (2000) pp. 794-814). In a state where two tasks are simultaneously executed, when one task is made difficult (or the priority of one task is increased), the execution performance of the other task is lowered. Based on a study using such a dual-task method, the P300 amplitude is considered to clearly reflect the cognitive functions in the perception-central nerve level that caused the amplitude (E. Donchin et al., Psychophysiology: Systems, processes, and applications, M. G. H. Coles et al. (Eds.), New York, Guilford Press, (1986) pp. 702-718). That is to say, the P300 amplitude reflects the degree of attention, the degree of concentration, and the degree of cognitive load, for a task of recognizing surroundings.
In a P300 test, for example, an auditory oddball paradigm can be employed. […] Then, a change in the obtained amplitude before and after ingestion is measured based on the Grand Average. […]
In the electroencephalogram, an auditory oddball paradigm was used in which two types of sounds consisting of a high-pitched sound having a frequency of 2 KHz and a low-pitched sound having a frequency of 1 KHz were emitted from a headphone, and the test subjects were instructed to press a button as quickly and accurately as possible at the moment when the test subjects heard the high-pitched sound. […] The evoked electroencephalograms were measured with the frontal polar (Fpz) electrode as ground, and two linked electrode attached to the left and right earlobes as reference. […]

[3] = After 6 weeks, two 3 mg capsules twice a day, oral, Mean ± SD
[4] = After 12 weeks, two 3 mg capsules twice a day, oral, Mean ± SD

CC1=C(/C=C/C(C)=C/C=C/C(C)=C/C=C/C=C(C)/C=C/C=C(C)/C=C/C2=C(C)C(=O)[C@@H](O)CC2(C)C)C(C)(C)C[C@H](O)C1=O [astaxanthin]
Choice reaction, average reaction time [1, 3]: 480.63 ± 39.87 ms
Delayed recall (Correct answer rate: %) [1, 3]: 71.19 ± 5.98%
Delayed recall, average reaction time [1, 3]: 975.40 ± 190.75 ms
Divided attention, average reaction time [1, 3]: 419.52 ± 59.32 ms
Working memory, average reaction time [1, 3]: 732.95 ± 174.83 ms
Simple reaction, average reaction time [1, 3]: 303.31 ± 33.80 ms
Choice reaction, average reaction time [1, 4]: 463.63 ± 26.49 ms
Delayed recall (Correct answer rate: %) [1, 4]: 70.71 ± 8.91%
Delayed recall, average reaction time [1, 4]: 916.77 ± 151.04 ms
Divided attention, average reaction time [1, 4]: 412.07 ± 51.97 ms
Working memory (Correct answer rate: %) [1, 4]: 96.30 ± 3.94%
Working memory, average reaction time [1, 4]: 654.83 ± 128.42 ms
Simple reaction, average reaction time [1, 4]: 281.76 ± 33.56 ms
Change in reaction time for divided attention ([1]; before ingestion versus 6 weeks after ingestion, P=0.034): significant reduction
Change in reaction time, all tasks ([1]; before ingestion versus 12 weeks after ingestion, P=0.013 to 0.034): significantly reduced
Effect on agility, judging ability and spatially allocated attention ability ([1]; overall conclusion from CogHealth): an effect of improving agility
Change in reaction time, all tasks of CogHealth ([1]; versus before ingestion): a reduction in reaction time was confirmed
Change in correct answer ratio, working memory ([1]; versus before ingestion, P=0.045): significant increase
Change in correct answer ratio, delayed recall ([1]; versus before ingestion, P=0.991): no significant change
P300 Amplitude ([2]; After 12 weeks, at Fz, two 3 mg capsules twice a day, oral, Mean ± SD): −10.54 ± 3.39 μV
Change in P300 amplitude at Fz ([2]; multiple comparisons, before/after comparison P=0.057): no significant change
Effect on concentration on the recognition of surroundings ([2]; overall conclusion from P300): an effect of improving concentration on the recognition of surroundings
